For 32 compounds, inhibition results are on record in patent US20100105729A1, “ARYL-SUBSTITUTED HETEROCYCLIC PDE4 INHIBITORS AS ANTI-INFLAMMATORY AGENTS” (KALYPSYS, INC., priority 2006, published 2010).

Each structure is given as a SMILES string.

For this assay, the target named is T1, PDE4B (Homo sapiens, UniProt Q07343).
T1 construct: hexa-histidine (His6) (N); made in house
T1 sequence (Q07343 330-659 limits assumed, species assumed): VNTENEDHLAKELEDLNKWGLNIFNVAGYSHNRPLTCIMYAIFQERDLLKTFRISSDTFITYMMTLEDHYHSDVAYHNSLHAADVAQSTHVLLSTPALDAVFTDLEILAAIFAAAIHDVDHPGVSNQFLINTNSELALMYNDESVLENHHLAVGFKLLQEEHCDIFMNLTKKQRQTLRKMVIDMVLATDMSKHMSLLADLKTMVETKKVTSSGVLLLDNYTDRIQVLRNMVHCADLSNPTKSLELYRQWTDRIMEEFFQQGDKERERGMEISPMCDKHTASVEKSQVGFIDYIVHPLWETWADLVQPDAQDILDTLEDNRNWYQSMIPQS
Description: PDE4 IMAP Assay. Format: biochemical. The conditions noted are these: catalytic domain of PDE4B, fluorescence polarization. The text has this:
Compounds may be screened for functional potency in in vitro biochemical assays for their ability to inhibit the activity of phosphodiesterase (PDE) enzymes. A commercial PDE assay, Molecular Device's PDE IMAP assay, was modified and utilized to measure the inhibitory activity of compounds on PDE isoforms. The IMAP technology is based on the high affinity binding of phosphate by immobilized metal (MIII) coordination complexes on nanoparticles. This IMAP “binding reagent” complexes with phosphate groups on the nucleotide monophosphates generated in the reaction. Such binding causes a change in the rate of the molecular motion of the nucleotide, and results in an increase in the fluorescence polarization value observed for the fluorescent label attached to the substrate. PDE inhibitors prevent the generation of nucleotide monophosphates and the subsequent increase in polarization value observed for the fluorescent label attached to the substrate. The catalytic domain of PDE4B was fused to an amino-terminus hex-histadine affinity tag and purified. PDE4B enzyme was incubated with compounds for 10 minutes. Fluorescently labeled cyclic AMP substrates were then added to the PDE enzyme mix and incubated for 2 hours at room temperature. IMAP binding reagent was then added to the enzyme mix, incubated for 10-30 minutes and fluorescent polarization of the fluorescently labeled substrate was read either with the Perkin Elmer Viewlux or Molecular Devices Acquest or Analyst. Roflumilast and Rolipram are the positive controls used in the assay.
A general note: In fluorescence polarisation assays a small probe gives low polarisation when free and higher when bound to something large.
In general, inhibition refers to the relative decrease from the control value, in per cent. A higher inhibition goes with a response far below the control. With `COc1ccc(C2=NN(C(=O)CCCC(=O)O)C(c3cccs3)C2)cc1OC` (centres unmarked) [Example 1, 5-(3-(3,4-dimethoxyphenyl)-5-(thiophen-2-yl)-4,5-dihydro-1H-pyrazol-1-yl)-5-oxopentanoic acid], the inhibition at 10 µM is < 50%. The result for `COc1ccc(C2=NN(S(C)(=O)=O)C(c3cccs3)C2)cc1OC` (centres unmarked) [Example 2, 3-(3,4-dimethoxyphenyl)-1-(methylsulfonyl)-5-(thiophen-2-yl)-4,5-dihydro-1H-pyrazole] reads < 50%; that for `COc1ccc(C2=NN(S(C)(=O)=O)C(c3c(F)cccc3Cl)C2)cc1OC` (centres unmarked) [Example 3, 5-(2-chloro-6-fluorophenyl)-3-(3,4-dimethoxyphenyl)-1-(methylsulfonyl)-4,5-dihydro-1H-pyrazole], < 50%; that for `COc1cccc(C2CC(c3ccc(OC)c(OC)c3)=NN2S(C)(=O)=O)c1` (centres unmarked) [Example 4, 3-(3,4-dimethoxyphenyl)-5-(3-methoxyphenyl)-1-(methylsulfonyl)-4,5-dihydro-1H-pyrazole], < 50%. For the compound `COc1ccc(C2=NN(C(=O)CCC(=O)O)C(c3cc4cccc(C)c4nc3Cl)C2)cc1OC` (centres unmarked) [Example 5, 4-(5-(2-chloro-8-methylquinolin-3-yl)-3-(3,4-dimethoxyphenyl)-4,5-dihydro-1H-pyrazol-1-yl)-4-oxobutanoic acid], the inhibition at 10 µM is < 50%. In the case of `COc1ccc2nc(Cl)c(C3CC(c4ccc(OC)c(OC)c4)=NN3C(=O)c3ccccc3Cl)cc2c1` (centres unmarked) [Example 6, (5-(2-chloro-6-methoxyquinolin-3-yl)-3-(3,4-dimethoxyphenyl)-4,5-dihydro-1H-pyrazol-1-yl)(2-chlorophenyl)methanone], the inhibition at 10 µM is < 50%.

In the case of `COc1ccc2nc(Cl)c(C3CC(c4ccc(OC)c(OC)c4)=NN3C(=O)c3ccccc3)cc2c1` (centres unmarked) [Example 7, (5-(2-chloro-6-methoxyquinolin-3-yl)-3-(3,4-dimethoxyphenyl)-4,5-dihydro-1H-pyrazol-1-yl)(phenyl)methanone], the inhibition at 10 µM was < 50%. With `CCC(=O)N1N=C(c2ccc(OC)c(OC)c2)CC1c1cc2cc(OC)ccc2nc1Cl` (centres unmarked) [Example 8, 1-(5-(2-chloro-6-methoxyquinolin-3-yl)-3-(3,4-dimethoxyphenyl)-4,5-dihydro-1H-pyrazol-1-yl)propan-1-one], the inhibition at 10 µM was < 50%. As for `COc1ccc2nc(Cl)c(C3CC(c4ccc(OC)c(OC)c4)=NN3C(=O)c3ccco3)cc2c1` (centres unmarked) [Example 9, (5-(2-chloro-6-methoxyquinolin-3-yl)-3-(3,4-dimethoxyphenyl)-4,5-dihydro-1H-pyrazol-1-yl)(furan-2-yl)methanone], the inhibition at 10 µM is < 50%. As for `COc1ccc2cc(C3CC(c4ccc(OC)c(OC)c4)=NN3C(=O)c3ccco3)c(Cl)nc2c1` (centres unmarked) [Example 10, (5-(2-chloro-7-methoxyquinolin-3-yl)-3-(3,4-dimethoxyphenyl)-4,5-dihydro-1H-pyrazol-1-yl)(furan-2-yl)methanone], the inhibition at 10 µM is < 50%. Turning to `COc1ccc(C2=NN(S(C)(=O)=O)C(c3cccc(OC)c3OC)C2)cc1OC` (centres unmarked) [Example 11, 5-(2,3-dimethoxyphenyl)-3-(3,4-dimethoxyphenyl)-1-(methylsulfonyl)-4,5-dihydro-1H-pyrazole], the inhibition at 10 µM is < 50%. Consider `CCc1ccc(C2CC(c3ccc(OC)c(OC)c3)=NN2S(C)(=O)=O)cc1` (centres unmarked) [Example 12, 3-(3,4-dimethoxyphenyl)-5-(4-ethylphenyl)-1-(methylsulfonyl)-4,5-dihydro-1H-pyrazole], for which the inhibition at 10 µM is < 50%.

Regarding `COc1ccc(C2=NN(S(C)(=O)=O)C(c3ccc(C)cc3)C2)cc1OC` (centres unmarked) [Example 13, 3-(3,4-dimethoxyphenyl)-1-(methylsulfonyl)-5-p-tolyl-4,5-dihydro-1H-pyrazole], the inhibition at 10 µM was < 50%. As to `COc1ccc(C2CC(c3ccc(OC)c(OC)c3)=NN2S(C)(=O)=O)cc1` (centres unmarked) [Example 14, 3-(3,4-dimethoxyphenyl)-5-(4-methoxyphenyl)-1-(methylsulfonyl)-4,5-dihydro-1H-pyrazole], the inhibition at 10 µM is < 50%.

For the compound `COc1ccc(C2=NN(S(C)(=O)=O)C(c3ccccc3Cl)C2)cc1OC` (centres unmarked) [Example 15, 5-(2-chlorophenyl)-3-(3,4-dimethoxyphenyl)-1-(methylsulfonyl)-4,5-dihydro-1H-pyrazole], the inhibition at 10 µM was < 50%. Then `COc1ccc2cc(C3CC(c4ccc(OC)c(OC)c4)=NN3C(=O)c3ccccc3Cl)c(Cl)nc2c1` (centres unmarked) [Example 16, (5-(2-chloro-7-methoxyquinolin-3-yl)-3-(3,4-dimethoxyphenyl)-4,5-dihydro-1H-pyrazol-1-yl)(2-chlorophenyl)methanone], with < 50%; and `COc1ccc2cc(C3CC(c4ccc(OC)c(OC)c4)=NN3C(=O)CCCC(=O)O)c(Cl)nc2c1` (centres unmarked) [Example 17, 5-(5-(2-chloro-7-methoxyquinolin-3-yl)-3-(3,4-dimethoxyphenyl)-4,5-dihydro-1H-pyrazol-1-yl)-5-oxopentanoic acid], with < 50%. Then `CCc1ccc(C2CC(c3ccc(OC)c(OC)c3)=NN2C(=O)CCCC(=O)O)cc1` (centres unmarked) [Example 18, 5-(3-(3,4-dimethoxyphenyl)-5-(4-ethylphenyl)-4,5-dihydro-1H-pyrazol-1-yl)-5-oxopentanoic acid], with < 50%; and `CCc1ccc(C2CC(c3ccc(OC)c(OC)c3)=NN2C(=O)CCC(=O)O)cc1` (centres unmarked) [Example 19, 4-(3-(3,4-dimethoxyphenyl)-5-(4-ethylphenyl)-4,5-dihydro-1H-pyrazol-1-yl)-4-oxobutanoic acid], with < 50%; and `CCC(=O)N1N=C(c2ccc(OC)c(OC)c2)CC1c1ccc(CC)cc1` (centres unmarked) [Example 20, 1-(3-(3,4-dimethoxyphenyl)-5-(4-ethylphenyl)-4,5-dihydro-1H-pyrazol-1-yl)propan-1-one], with < 50%. Then `CCc1ccc(C2CC(c3ccc(OC)c(OC)c3)=NN2C(C)=O)cc1` (centres unmarked) [Example 21, 1-(3-(3,4-dimethoxyphenyl)-5-(4-ethylphenyl)-4,5-dihydro-1H-pyrazol-1-yl)ethanone], with < 50%; and `COc1ccc2cc(C3CC(c4ccc(OC)c(OC)c4)=NN3C(=O)CCC(=O)O)c(Cl)nc2c1` (centres unmarked) [Example 22, 4-(5-(2-chloro-7-methoxyquinolin-3-yl)-3-(3,4-dimethoxyphenyl)-4,5-dihydro-1H-pyrazol-1-yl)-4-oxobutanoic acid], with < 50%. Regarding `COc1ccc2cc(C3CC(c4ccc(OC)c(OC)c4)=NN3C(C)=O)c(Cl)nc2c1` (centres unmarked) [Example 23, 1-(5-(2-chloro-7-methoxyquinolin-3-yl)-3-(3,4-dimethoxyphenyl)-4,5-dihydro-1H-pyrazol-1-yl)ethanone], the inhibition at 10 µM is < 50%. With `COc1ccc(C2=NN(S(=O)(=O)c3ccc(C)cc3)C(c3cn(-c4ccccc4)nc3-c3ccccc3)C2)cc1OC` (centres unmarked) [Example 24, 4-(3-(3,4-dimethoxyphenyl)-1-tosyl-4,5-dihydro-1H-pyrazol-5-yl)-1,3-diphenyl-1H-pyrazole], the inhibition at 10 µM was < 50%. On to `COc1ccc(C2=NN(S(=O)(=O)c3ccccc3)C(c3cn(-c4ccccc4)nc3-c3ccccc3)C2)cc1OC` (centres unmarked) [Example 25, 4-(3-(3,4-dimethoxyphenyl)-1-(phenylsulfonyl)-4,5-dihydro-1H-pyrazol-5-yl)-1,3-diphenyl-1H-pyrazole], for which the inhibition at 10 µM is < 50%.

Consider `COc1ccc(C2=NN(C(=O)c3ccccc3Cl)C(c3cn(-c4ccccc4)nc3-c3ccccc3)C2)cc1OC` (centres unmarked) [Example 26, (2-chlorophenyl)(3-(3,4-dimethoxyphenyl)-5-(1,3-diphenyl-1H-pyrazol-4-yl)-4,5-dihydro-1H-pyrazol-1-yl)methanone], for which the inhibition at 10 µM was < 50%.

For `COc1ccc(C2=NN(C(=O)CCC(=O)O)C(c3cc4ccccc4nc3Cl)C2)cc1OC` (centres unmarked) [Example 27, 4-(5-(2-chloroquinolin-3-yl)-3-(3,4-dimethoxyphenyl)-4,5-dihydro-1H-pyrazol-1-yl)-4-oxobutanoic acid], the inhibition at 10 µM is < 50%. In the case of `COc1ccc(C2=NN(C(C)=O)C(c3cc4ccccc4nc3Cl)C2)cc1OC` (centres unmarked) [Example 28, 1-(5-(2-chloroquinolin-3-yl)-3-(3,4-dimethoxyphenyl)-4,5-dihydro-1H-pyrazol-1-yl)ethanone], the inhibition at 10 µM was < 50%. Regarding `COc1ccc(OC)c(C2CC(c3ccc(OC)c(OC)c3)=NN2C(=O)c2ccccc2Cl)c1` (centres unmarked) [Example 29, (2-chlorophenyl)(5-(2,5-dimethoxyphenyl)-3-(3,4-dimethoxyphenyl)-4,5-dihydro-1H-pyrazol-1-yl)methanone], the inhibition at 10 µM was < 50%. The result for `COc1ccc(C2=NN(C(=O)c3ccccc3Cl)C(c3cccc(OC)c3OC)C2)cc1OC` (centres unmarked) [Example 30, (2-chlorophenyl)(5-(2,3-dimethoxyphenyl)-3-(3,4-dimethoxyphenyl)-4,5-dihydro-1H-pyrazol-1-yl)methanone] reads < 50%; that for `COc1ccc(C2=NN(C(=O)c3ccccc3Cl)C(c3ccc(C)cc3)C2)cc1OC` (centres unmarked) [Example 32, (2-chlorophenyl)(3-(3,4-dimethoxyphenyl)-5-p-tolyl-4,5-dihydro-1H-pyrazol-1-yl)methanone], < 50%. On to `COc1ccc(C2CC(c3ccc(OC)c(OC)c3)=NN2C(=O)c2ccccc2Cl)cc1` (centres unmarked) [Example 33, (2-chlorophenyl)(3-(3,4-dimethoxyphenyl)-5-(4-methoxyphenyl)-4,5-dihydro-1H-pyrazol-1-yl)methanone], for which the inhibition at 10 µM is ≥ 50%.
